This passage reports EC50 results from US11964973B2 (priority 2019, dated 2024).

SMILES strings stand for the structures.

The first test relates to Human venous whole blood (IFN-γ). The test is described as follows: Human whole blood IFN-γ assay. The test is classed as cell-based. The following applies: Homo sapiens, 24 h, human whole blood, anti-CD3 plus anti-CD28, 24 hours; read-out: INFg Whole Blood Normalized Agonist EC50. The method, then:
Assay 10: Human Whole Blood IFN-γ Assay
Human venous whole blood (22.5 μL per well), obtained from healthy donors, was pre-treated with compounds for one hour at 37° C. in a humidified 95% air/5% CO2 incubator. The blood was stimulated with 2.5 μL anti-human CD3 and anti-CD28 mAb at a final concentration of 1 μg/mL each for 24 hours at 37° C. IFN-γ in the supernatants was measured using AlphLISA kit (Cat #AL217).
Regarding `CC[C@@H]1CN(c2cc(=O)n(C)c3ccc(C#N)nc23)CC[C@H]1Oc1ccc(C(F)(F)F)cc1` (racemic) [Example 146, 8-((3R,4R)-3-ethyl-4-(4-(trifluoromethyl)phenoxy)piperidin-1-yl)-5-methyl-6-oxo-5,6-dihydro-1,5-naphthyridine-2-carbonitrile], the EC50 is 1700 nM. Same read-out and setting: the figure for `C[C@@H]1CN(c2cc(=O)n(C)c3ccc(C#N)nc23)CC[C@H]1Oc1ccc(C(C)(C)C)cc1` [Example 88, 8-((3R,4R)-4-(4-(tert-butyl)phenoxy)-3-methylpiperidin-1-yl)-5-methyl-6-oxo-5,6-dihydro-1,5-naphthyridine-2-carbonitrile] is 880 nM; for `C[C@@H]1CN(c2cc(=O)n(C)c3ccc(C#N)nc23)CC[C@H]1Oc1ccc(F)cc1F` (racemic) [Example 113, 8-((3R,4R)-4-(2,4-difluorophenoxy)-3-methylpiperidin-1-yl)-5-methyl-6-oxo-5,6-dihydro-1,5-naphthyridine-2-carbonitrile] it is 4100 nM. On the same count and under the same terms, the figure for `CC[C@@H]1CN(c2cc(=O)n(C)c3ccc(C#N)nc23)CC[C@H]1Oc1cccc(C2CC2)c1` (racemic) [Example 155, 8-((3R,4R)-4-(3-cyclopropylphenoxy)-3-ethylpiperidin-1-yl)-5-methyl-6-oxo-5,6-dihydro-1,5-naphthyridine-2-carbonitrile] is 20000 nM; for `C[C@@H]1CN(c2cc(=O)n(C)c3ccc(C#N)nc23)CC[C@H]1Oc1ccc(F)cc1` (single isomer, unassigned) [Example 129] it is 20000 nM. Regarding `C[C@@H]1CN(c2cc(=O)n(C)c3ccc(C#N)nc23)CC[C@H]1Oc1ccc(C(C)(C)C)cc1` (single isomer, unassigned) [Example 90], the EC50 came to 5600 nM. For `C[C@@H]1CN(c2cc(=O)n(C)c3ccc(C#N)nc23)CC[C@H]1Oc1ccc(C2CC2)cc1` (racemic) [Example 111, 8-((3R,4R)-4-(4-cyclopropylphenoxy)-3-methylpiperidin-1-yl)-5-methyl-6-oxo-5,6-dihydro-1,5-naphthyridine-2-carbonitrile], the EC50 turned out to be 3300 nM. For `CC[C@@H]1CN(c2cc(=O)n(C)c3ccc(C#N)nc23)CC[C@H]1Oc1ccc(C(C)(C)CC)cc1` (single isomer, unassigned) [Example 150], the EC50 came out at 1400 nM. Turning to `CCc1ccc(O[C@@H]2CCN(c3cc(=O)n(C)c4ccc(C#N)nc34)C[C@H]2C)cc1` (racemic) [Example 110, 8-((3R,4R)-4-(4-ethylphenoxy)-3-methylpiperidin-1-yl)-5-methyl-6-oxo-5,6-dihydro-1,5-naphthyridine-2-carbonitrile], the EC50 is 3000 nM.

As for `CC[C@@H]1CN(c2cc(=O)n(C)c3ccc(C#N)nc23)CC[C@H]1Oc1ccc(C(C)C)cc1` (racemic) [Example 143, 8-((3R,4R)-3-ethyl-4-(4-isopropylphenoxy)piperidin-1-yl)-5-methyl-6-oxo-5,6-dihydro-1,5-naphthyridine-2-carbonitrile], the EC50 was determined as 2200 nM.

Still in this test, the particulars now being: Homo sapiens, human whole blood IFN-γ; read-out: INFg Whole Blood.
With `C[C@@H]1CN(c2cc(=O)n(C)c3ccc(C(N)=O)nc23)CC[C@@H]1OCc1ccc(OC(F)(F)F)cc1` (racemic) [Example 236, (+/−) 5-methyl-8-(cis-3-methyl-4-((4-(trifluoromethoxy)benzyl)oxy)piperidin-1-yl)-6-oxo-5,6-dihydro-1,5-naphthyridine-2-carboxamide], the EC50 came to 20000 nM. The same measure, in the same setting: the figure for `CC(C)Oc1ccc(O[C@@H]2CCN(c3cc(=O)n(C)c4ccc(C#N)nc34)C[C@H]2C)nc1` (mixture of isomers) [Example 199, 8-((3R,4R)-4-((5-isopropoxypyridin-2-yl)oxy)-3-methylpiperidin-1-yl)-5-methyl-6-oxo-5,6-dihydro-1,5-naphthyridine-2-carbonitrile] is 2100 nM; for `COc1ccnc(O[C@H]2CCN(c3cc(=O)n(C)c4ccc(C#N)nc34)C[C@H]2C)n1` [Example 218, 8-((3R,4S)-4-((4-methoxypyrimidin-2-yl)oxy)-3-methylpiperidin-1-yl)-5-methyl-6-oxo-5,6-dihydro-1,5-naphthyridine-2-carbonitrile] it is 20000 nM; for `C[C@@H]1CN(c2cc(=O)n(C)c3ccc(C#N)nc23)CC[C@@H]1Oc1ccc(C(F)F)cn1` [Example 208, 8-((3R,4S)-4-((5-(difluoromethyl)pyridin-2-yl)oxy)-3-methylpiperidin-1-yl)-5-methyl-6-oxo-5,6-dihydro-1,5-naphthyridine-2-carbonitrile] it is 2100 nM. Same read-out and setting: the figure for `CC(C)c1cccc(O[C@H]2CCN(c3cc(=O)n(C)c4ccc(C#N)nc34)C[C@H]2C)n1` [Example 214, 8-((3R,4S)-4-((6-isopropylpyridin-2-yl)oxy)-3-methylpiperidin-1-yl)-5-methyl-6-oxo-5,6-dihydro-1,5-naphthyridine-2-carbonitrile] is 5000 nM. The same measure, in the same setting: the figure for `C[C@@H]1CN(c2cc(=O)n(C)c3ccc(C#N)nc23)CC[C@@H]1Oc1ccc(C(F)(F)F)cn1` (single isomer, unassigned) [Example 226] is 2400 nM.

The test is the same for the next values; noted with them: human whole blood IFN-γ; read-out: INFg Whole Blood.
On to `CO[C@@H]1CN(c2nc(=O)n(C)c3ccc(C#N)nc23)CC[C@H]1Oc1cccc(C(F)(F)F)c1` (racemic) [Example 276], for which the EC50 came out at 1000 nM. Still for that read-out and setting: the figure for `C[C@@H]1CN(c2cc(=O)n(C)c3ccc(C#N)nc23)CC[C@@H]1Oc1ccc(C(F)(F)F)cc1` (single isomer, unassigned) [Example 188, 5-methyl-8-(cis-3-methyl-4-(4-(trifluoromethyl)phenoxy)piperidin-1-yl)-6-oxo-5,6-dihydro-1,5-naphthyridine-2-carbonitrile (rel)] is 6400 nM; for `CC(C)Oc1ccc(OC2CCN(c3cc(=O)n(C)c4ccc(C#N)nc34)CC2(C)C)nc1` (single isomer, unassigned) [Example 233, 8-(4-((5-isopropoxypyridin-2-yl)oxy)-3,3-dimethylpiperidin-1-yl)-5-methyl-6-oxo-5,6-dihydro-1,5-naphthyridine-2-carbonitrile (rel)] it is 3300 nM. On to `CO[C@@H]1CN(c2cc(=O)n(C)c3ccc(C#N)nc23)CC[C@H]1Oc1cccc(C(F)(F)F)c1` (racemic) [Example 261, (±)-trans-8-(3-methoxy-4-(3-(trifluoromethyl)phenoxy)piperidin-1-yl)-5-methyl-6-oxo-5,6-dihydro-1,5-naphthyridine-2-carbonitrile], for which the EC50 was found to be 910 nM. Same read-out and setting: the figure for `CC(C)c1ccnc(O[C@H]2CCN(c3cc(=O)n(C)c4ccc(C#N)nc34)C[C@H]2C)c1` (single isomer, unassigned) [Example 212] is 1900 nM.

The test is the same for the next values; noted with them: human whole blood, anti-CD3 plus anti-CD28, 24 hours; read-out: INFg Whole Blood Normalized Agonist EC50.
With `C[C@@H]1CN(c2cc(=O)n(C)c3ccc(C#N)nc23)CC[C@H]1Oc1ccc(C(F)(F)F)cc1` (single isomer, unassigned) [Example 98], the EC50 worked out at 1200 nM. The same measure, in the same setting: the figure for `CC[C@@H]1CN(c2cc(=O)n(C)c3ccc(C#N)nc23)CC[C@H]1Oc1ccc(C(C)(C)CC)cc1` (single isomer, unassigned) [Example 151] is 2400 nM; for `C[C@@H]1CN(c2cc(=O)n(C)c3ccc(C#N)nc23)CC[C@H]1Oc1c(F)cccc1F` (single isomer, unassigned) [Example 127] it is 20000 nM.
